Laboratory results published in patent publication US20220193240A1, “TRIGGERABLE HYDROGEL COMPOSITIONS AND RELATED METHODS” (Massachusetts Institute of Technology, priority 2016, published 2022).

Legend:
[1] = pH 7.4
Description: Permeability measurement. The measurement of permeability of TTHs was carried out on a Franz diffusion cell using a TTH membrane (thickness, 3 mm). […] At each time point, 0.4 mL was sampled from the acceptor compartment and 0.4 mL fresh PBS was supplemented through the sampling port of the cell.

[2] = In vivo pharmacokinetics of lumefantrine with model fit; parameters: species or system Yorkshire pig
Description: In vivo studies. All animal experiments were performed in accordance with protocols approved by the Committee on Animal Care at MIT. A large animal model, 45-55 kg Yorkshire pigs, was chosen as its gastric anatomy similar to humans and is widely used in evaluating devices in the GI space. Pigs were sedated with Telazol (tiletamine/zolazepam) 5 mg kg−1, xylazine 2 mg kg−1, and atropine 0.05 mg kg−1, and/or isoflurane (1˜3% inhaled), and an endoscopic overtube (US Endoscopy) was placed in the esophagus under endoscopic visual guidance during esophageal intubation. To evaluate the TTH for its ability to be triggered to dissolve into solution with biocompatible agents, the retrievable TTH strips and methyl blue-labeled large TTH sheets were administered via the overtube into the stomach. PBS (0.5 L) containing EDTA (40 mM), GSH (20 mM), and NaHCO3 (60 mM) was administered via the overtube after the gastric placement of the TTH samples. Intra-gastric endoscopy videography was used for image capture of the dissolution of the TTH sheets. The TTH strips were retrieved endoscopically after 1 h in the gastric cavity. Pigs that were not administered EDTA/GSH and therefore the strips and sheets were only exposed to gastric fluid were used as control experiments. To assess TTHs for the ability to achieve gastric retention, radiopaque barium sulfate-labeled capsule-like TTHs were administered via the overtube into the gastric cavity (one TTH device per pig). Radiographs were performed every 48-72 h to monitor the integrity and transit of the devices as well as any radiographic evidence of bowel obstruction or perforation. […] During the evaluation of the TTH systems for gastric residence and drug delivery the animals were monitored twice daily for any signs of abnormal feeding and stooling patterns. Additionally the animals were monitored clinically for any evidence of gastrointestinal obstruction as well as radiographically every 48-72 hours for evidence of obstruction and/or perforation. […]

Row | Structure (SMILES) | permeability through the TTH [1] | clearance from blood ([2]; after a single administration) | absorption rate constant ([2]; first order model fit) | elimination rate constant ([2]; free drug, model fit, estimated)
1 | C[S+](C)[O-] [dimethyl sulfoxide] | 0.082 mL h·cm−2 |  |  | 
2 | CCCCN(CCCC)CC(O)c1cc(Cl)cc2c1-c1ccc(Cl)cc1/C2=C/c1ccc(Cl)cc1 (stereo not shown) [free lumefantrine, lumefantrine] |  | rapidly cleared from blood | 1.17 day⁻¹ | 1.17 day⁻¹
